The source of these data is PubChem BioAssay (NCI).

One may read the GI50 as the concentration giving 50% growth inhibition. The TGI is the concentration giving total growth inhibition.

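Cells were grown in 96-well plates and exposed to each compound for 48 hours at five concentrations; endpoints were interpolated linearly between bracketing concentrations, or set to the highest concentration if not reached. GI50 marks 50% less growth. TGI is the concentration that stops growth completely.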

Test systems include CAKI-1 renal; RXF 393 renal; SF-268 CNS; IGROV1 ovarian; SNB-19 CNS; U251 CNS; CCRF-CEM leukemia; NCI-H460 lung; SN12C renal; NCI/ADR-RES ovarian.
Holding throughout (assay): DTP human tumour cell line panel, 48 h

With `C/C(=N\O)c1cccc(Nc2cc(-c3ccccc3)nc3c(O)cccc23)c1`, the GI50 in the assay with CAKI-1 renal is 2780 nM; in the assay with RXF 393 renal it was 1620 nM; in the assay with SF-268 CNS, 4380 nM; in the assay with IGROV1 ovarian, 2410 nM; with SNB-19 CNS, 1130 nM; with U251 CNS, 2350 nM. Further, the GI50 in the assay on CCRF-CEM leukemia was 2130 nM; in the assay on NCI-H460 lung it was 2490 nM; with SN12C renal, 3580 nM; in the assay on NCI/ADR-RES ovarian, 1370 nM. The TGI with CAKI-1 renal is more than 37300 nM; in the assay on RXF 393 renal, 6420 nM; in the assay on SF-268 CNS, 39500 nM; in the assay on IGROV1 ovarian it was 18000 nM; with SNB-19 CNS it was 9420 nM; in the assay with U251 CNS it was 15800 nM. Besides, the TGI in the assay on CCRF-CEM leukemia is more than 26500 nM; with NCI-H460 lung, 17200 nM; in the assay with SN12C renal, 17200 nM; in the assay with NCI/ADR-RES ovarian, more than 23500 nM.

As for `Cc1cc(C(O)(c2ccc(Nc3ccccc3)cc2)c2ccc(Nc3ccc(S(=O)(=O)O)cc3)cc2)ccc1N` (stereo not given), the GI50 in the assay with CAKI-1 renal is 2240 nM; with RXF 393 renal it was 989 nM; in the assay on SF-268 CNS it was 1680 nM; in the assay with IGROV1 ovarian it was 1520 nM; in the assay with SNB-19 CNS, 1390 nM; in the assay with U251 CNS it was 772 nM. The GI50 was 439 nM in the assay with CCRF-CEM leukemia, 1320 nM with NCI-H460 lung, 1820 nM with SN12C renal and 1830 nM in the assay on NCI/ADR-RES ovarian. Also, the TGI in the assay on CAKI-1 renal amounted to 9140 nM; with RXF 393 renal, 2280 nM; in the assay on SF-268 CNS, 4190 nM; in the assay on IGROV1 ovarian it was 3400 nM; in the assay on SNB-19 CNS, 3480 nM; in the assay with U251 CNS, 2050 nM. Moreover, the TGI is more than 100000 nM in the assay on CCRF-CEM leukemia, 2780 nM in the assay with NCI-H460 lung, 9120 nM with SN12C renal and 4580 nM with NCI/ADR-RES ovarian.

For the compound `CC(C)OCc1cc(CN2CCN(c3cccc(Cl)c3)CC2)c(O)c2ncccc12`, the GI50 with CAKI-1 renal was 223 nM; in the assay on RXF 393 renal, 2870 nM; with SF-268 CNS, 629 nM; in the assay on IGROV1 ovarian it was 621 nM; in the assay on SNB-19 CNS it was 504 nM; in the assay on U251 CNS, 423 nM. For the same compound, the GI50 with CCRF-CEM leukemia is 383 nM; in the assay with NCI-H460 lung, 410 nM; in the assay with SN12C renal, 917 nM; in the assay with NCI/ADR-RES ovarian, 203 nM. Further, the TGI in the assay with CAKI-1 renal worked out at 11000 nM; with RXF 393 renal, 20200 nM; in the assay with SF-268 CNS it was 14700 nM; with IGROV1 ovarian, 16600 nM; in the assay with SNB-19 CNS, 21700 nM; with U251 CNS, 11900 nM. Besides, the TGI with CCRF-CEM leukemia was 9890 nM; in the assay on NCI-H460 lung, 11200 nM; in the assay with SN12C renal, 15600 nM; in the assay on NCI/ADR-RES ovarian, 10600 nM.
